Experimental data reported in patent publication US12225903B2, “Synergistic cleaning disinfectant solution with enhanced stability, and methods of using the same” (Diversey, Inc., priority 2019, dated 2025).
Where two headings read alike, the source gives them in different places.

Columns and labels:
[1] = system: bacteria Staphylococcus aureus, Escherichia coli, and Lactobacillus brevis; assay: Amount of antimicrobial acid required to pass EN1276:2009 (antibacterial activity); type: cell-based; settings: gluconic and salicylic acid used in combination
Description: To pass the EN1276 test method, a log reduction of greater than or equal to 5 must be achieved in five minutes.

[2] = system: fungus Aspergillus niger and yeast Saccharomyces cerevisiae; assay: Amount of antimicrobial acid required to pass EN1650:2008 (antifungal activity); type: cell-based; settings: gluconic and salicylic acid used in combination
Description: To pass the EN 1650:2008 antimicrobial testing protocol, a log reduction of greater than or equal to 4 must be achieved in fifteen minutes.

[3] = in combination with gluconic acid

Row | Structure (SMILES) | Concentration of Antimicrobial Acids required to pass ([1]; Clean, 4° C.) [ppm] | Concentration of Antimicrobial Acids required to pass ([1]; Clean, 25° C.) [ppm] | Concentration of Antimicrobial Acids required to pass ([1]; Dirty, 4° C.) [ppm] | Concentration of Antimicrobial Acids required to pass ([1]; Dirty, 25° C.) [ppm] | Concentration of Antimicrobial Acids required to pass ([2]; Clean, 4° C.) [ppm] | Concentration of Antimicrobial Acids required to pass ([2]; Clean, 25° C.) [ppm] | Concentration of Antimicrobial Acids required to pass ([2]; Dirty, 4° C.) [ppm] | Concentration of Antimicrobial Acids required to pass ([2]; Dirty, 25° C.) [ppm] | required amount of salicylic acid in the disclosed cleaning disinfectant solution [3] | required amount of salicylic acid in the disclosed cleaning disinfectant solution ([3]; to pass EN1276:2009 and EN1650:2008)
1 | O=C(O)[C@H](O)[C@@H](O)[C@H](O)[C@H](O)CO [Gluconic Acid, Gluconic acid] | 300 | 150 | 300 | 150 | 750 | 600 | 750 | 750 | – | –
2 | O=C(O)c1ccccc1O [Salicylic Acid, Salicylic acid] | 75 | 37 | 75 | 37 | 188 | 150 | 188 | 188 | less than 2 % by weight | less than 2 wt %
